Reference: patent US20180051017A1, “AGENT FOR TREATMENT OF SCHIZOPHRENIA” (Sumitomo Dainippon Pharma Co., Ltd., priority 2002, published 2018)
Where a name gives a salt, the structure may show the parent alone.

Tested on: patients with schizophrenia in the acute exacerbation phase
Experiment: First stage phase II clinical trial: safety (adverse events, serious adverse events, side effects, ECG, laboratory tests)
Format: in vivo, human
Protocol: According to the procedures as shown in Table 1 as described below, the placebo-controlled double blind experiment was done on 149 patients with schizophrenia in the acute exacerbation phase at 15 facilities in USA. The efficacy and safeness were studied when SM-13496 at a dose of 40 mg or 120 mg, or a placebo was orally administered once a day for 6 weeks after placebo washout.

[1] = 40 mg orally once a day for 6 weeks, 50 subjects

Structure (SMILES): O=C1[C@@H]2[C@@H]3CC[C@@H](C3)[C@@H]2C(=O)N1C[C@@H]1CCCC[C@H]1CN1CCN(c2nsc3ccccc23)CC1 [SM-13496, (1R,2S,3R,4S)-N-[(1R,2R)-2-[4-(1,2-benzoisothiazol-3-yl)-1-piperazinyl-methyl]-1-cyclohexylmethyl]-2,3-bicyclo[2.2.1]heptanedicarboximide hydrochloride]
- Relationship of the serious adverse events to the tested medicament (40 mg and 120 mg groups): denied
- Body weight gain, bulimia, impotence, erectile dysfunction or convulsion (40 mg or 120 mg, 6 weeks): not observed
- Change in 12-lead electrocardiogram (40 mg or 120 mg, 6 weeks): no clinically significant change
- Number of subjects showing adverse events (%) [1]: 40 (80) number of subjects (%)
- Number of subjects showing serious adverse events (%) [1]: 3 (6) number of subjects (%)
- Number of subjects who drop out from the trial due to adverse events (%) [1]: 6 (12) number of subjects (%)
- Ratio of the patients having an abnormal change in laboratory values among the groups (40 mg, 120 mg and placebo groups): no significant difference
- Occurrence of adverse event: Akathisia (40 mg, 6 weeks, 50 subjects): 4 (8) number of subjects (%)
- Occurrence of adverse event: Digestive disturbance (40 mg, 6 weeks, 50 subjects): 4 (8) number of subjects (%)
- Occurrence of adverse event: Drowsiness (40 mg, 6 weeks, 50 subjects): 4 (8) number of subjects (%)
- Occurrence of adverse event: Exacerbation of schizophrenia (40 mg, 6 weeks, 50 subjects): 2 (4) number of subjects (%)
- Occurrence of adverse event: Free-floating vertigo (excluding rotatory vertigo) (40 mg, 6 weeks, 50 subjects): 6 (12) number of subjects (%)
- Occurrence of adverse event: Headache (40 mg, 6 weeks, 50 subjects): 8 (16) number of subjects (%)
- Occurrence of adverse event: Nausea (40 mg, 6 weeks, 50 subjects): 5 (10) number of subjects (%)
- Occurrence of adverse event: Suppression (40 mg, 6 weeks, 50 subjects): 9 (18) number of subjects (%)
- Occurrence of serious adverse event: Exacerbation of paranoia (40 mg, 6 weeks, 50 subjects): 1 (2) number of subjects (%)
- Occurrence of serious adverse event: Exacerbation of schizophrenia (40 mg, 6 weeks, 50 subjects): 1 (2) number of subjects (%)
- Occurrence of serious adverse event: Paranoid schizophrenia (40 mg, 6 weeks, 50 subjects): 0 (0) number of subjects (%)
- Occurrence of serious adverse event: Psychosis aggravated (40 mg, 6 weeks, 50 subjects): 1 (2) number of subjects (%)
- Occurrence of side effects (%) (40 mg, 6 weeks, 50 subjects): 33 (66) number of subjects (%)
- Serious adverse events: Total (%) (40 mg, 6 weeks, 50 subjects): 3 (6) number of subjects (%)
- Side effect: Abdominal pain (Gastroenteric disturbance) (40 mg, 6 weeks, 50 subjects): 0 (0) number of subjects (%)
- Side effect: Abnormal electrocardiogram (Laboratory assay) (40 mg, 6 weeks, 50 subjects): 0 (0) number of subjects (%)
- Side effect: Abnormal liver function tests (Laboratory assay) (40 mg, 6 weeks, 50 subjects): 0 (0) number of subjects (%)
- Side effect: Agitation (Mental disturbance) (40 mg, 6 weeks, 50 subjects): 0 (0) number of subjects (%)
- Side effect: Agitation aggravated (Mental disturbance) (40 mg, 6 weeks, 50 subjects): 0 (0) number of subjects (%)
- Side effect: Akathisia (Nervous system disorder) (40 mg, 6 weeks, 50 subjects): 4 (8) number of subjects (%)
- Side effect: Akathisia aggravated (Nervous system disorder) (40 mg, 6 weeks, 50 subjects): 1 (2) number of subjects (%)
- Side effect: Anarthria (Nervous system disorder) (40 mg, 6 weeks, 50 subjects): 0 (0) number of subjects (%)
- Side effect: Anorexia (Metabolic disturbances and nutritional disturbance) (40 mg, 6 weeks, 50 subjects): 1 (2) number of subjects (%)
- Side effect: Anxiety aggravated (Mental disturbance) (40 mg, 6 weeks, 50 subjects): 1 (2) number of subjects (%)
- Side effect: Articular rigidity (Musculoskeletal system and connective tissue disorder) (40 mg, 6 weeks, 50 subjects): 1 (2) number of subjects (%)
- Side effect: Blurred vision (Ocular disturbance) (40 mg, 6 weeks, 50 subjects): 1 (2) number of subjects (%)
- Side effect: Breathing difficulty (Disturbance in respiratory organ, chest and mediastinum) (40 mg, 6 weeks, 50 subjects): 0 (0) number of subjects (%)
- Side effect: Cervical rigidity (Musculoskeletal system and connective tissue disorder) (40 mg, 6 weeks, 50 subjects): 1 (2) number of subjects (%)
- Side effect: Cogwheel rigidity (Nervous system disorder) (40 mg, 6 weeks, 50 subjects): 0 (0) number of subjects (%)
- Side effect: Constipation (Gastroenteric disturbance) (40 mg, 6 weeks, 50 subjects): 2 (4) number of subjects (%)
- Side effect: Decrease in appetite (Metabolic disturbances and nutritional disturbance) (40 mg, 6 weeks, 50 subjects): 1 (2) number of subjects (%)
- Side effect: Diarrhea (Gastroenteric disturbance) (40 mg, 6 weeks, 50 subjects): 3 (6) number of subjects (%)
- Side effect: Drowsiness (Nervous system disorder) (40 mg, 6 weeks, 50 subjects): 4 (8) number of subjects (%)
- Side effect: Dry eye (Ocular disturbance) (40 mg, 6 weeks, 50 subjects): 0 (0) number of subjects (%)
- Side effect: Dry mouth (Gastroenteric disturbance) (40 mg, 6 weeks, 50 subjects): 0 (0) number of subjects (%)
- Side effect: Dyspepsia (Gastroenteric disturbance) (40 mg, 6 weeks, 50 subjects): 3 (6) number of subjects (%)
- Side effect: Dystonic reaction (Nervous system disorder) (40 mg, 6 weeks, 50 subjects): 1 (2) number of subjects (%)
- Side effect: Exacerbation of insomnia (Mental disturbance) (40 mg, 6 weeks, 50 subjects): 0 (0) number of subjects (%)
- Side effect: External otitis (Infection and parasitosis) (40 mg, 6 weeks, 50 subjects): 1 (2) number of subjects (%)
- Side effect: Extrapyramidal disease (Nervous system disorder) (40 mg, 6 weeks, 50 subjects): 1 (2) number of subjects (%)
- Side effect: Fatigue (Total disability and local condition) (40 mg, 6 weeks, 50 subjects): 3 (6) number of subjects (%)
- Side effect: Fatigue aggravated (Total disability and local condition) (40 mg, 6 weeks, 50 subjects): 1 (2) number of subjects (%)
- Side effect: Flatulence (Gastroenteric disturbance) (40 mg, 6 weeks, 50 subjects): 1 (2) number of subjects (%)
- Side effect: Flushing (Vascular diseases) (40 mg, 6 weeks, 50 subjects): 0 (0) number of subjects (%)
- Side effect: Free-floating vertigo (excluding rotatory vertigo) (Nervous system disorder) (40 mg, 6 weeks, 50 subjects): 5 (10) number of subjects (%)
- Side effect: Frequent urination (Renal Injury and urinary disorder) (40 mg, 6 weeks, 50 subjects): 0 (0) number of subjects (%)
- Side effect: Glossoplegia (Nervous system disorder) (40 mg, 6 weeks, 50 subjects): 0 (0) number of subjects (%)
- Side effect: Headache (Nervous system disorder) (40 mg, 6 weeks, 50 subjects): 6 (12) number of subjects (%)
- Side effect: Heavy feeling (Musculoskeletal system and connective tissue disorder) (40 mg, 6 weeks, 50 subjects): 1 (2) number of subjects (%)
- Side effect: Hot flashes (Vascular diseases) (40 mg, 6 weeks, 50 subjects): 0 (0) number of subjects (%)
- Side effect: Hot sensation (Total disability and local condition) (40 mg, 6 weeks, 50 subjects): 0 (0) number of subjects (%)
- Side effect: Increase in creatine phosphokinase level in the blood (Laboratory assay) (40 mg, 6 weeks, 50 subjects): 1 (2) number of subjects (%)
- Side effect: Increase in prolactin level in the blood (Laboratory assay) (40 mg, 6 weeks, 50 subjects): 1 (2) number of subjects (%)
- Side effect: Increase in total protein (Laboratory assay) (40 mg, 6 weeks, 50 subjects): 1 (2) number of subjects (%)
- Side effect: Insomnia (Mental disturbance) (40 mg, 6 weeks, 50 subjects): 1 (2) number of subjects (%)
- Side effect: Laryngopharynx pain (Disturbance in respiratory organ, chest and mediastinum) (40 mg, 6 weeks, 50 subjects): 1 (2) number of subjects (%)
- Side effect: Loose stools (Gastroenteric disturbance) (40 mg, 6 weeks, 50 subjects): 0 (0) number of subjects (%)
- Side effect: Melalgia (Musculoskeletal system and connective tissue disorder) (40 mg, 6 weeks, 50 subjects): 0 (0) number of subjects (%)
- Side effect: Muscle stiffness (Musculoskeletal system and connective tissue disorder) (40 mg, 6 weeks, 50 subjects): 2 (4) number of subjects (%)
- Side effect: Myalgic pain (Musculoskeletal system and connective tissue disorder) (40 mg, 6 weeks, 50 subjects): 0 (0) number of subjects (%)
- Side effect: Nausea (Gastroenteric disturbance) (40 mg, 6 weeks, 50 subjects): 4 (8) number of subjects (%)
- Side effect: Nightmare (Mental disturbance) (40 mg, 6 weeks, 50 subjects): 0 (0) number of subjects (%)
- Side effect: Palpitation (Heart problems) (40 mg, 6 weeks, 50 subjects): 0 (0) number of subjects (%)
- Side effect: Parotiditis (Infection and parasitosis) (40 mg, 6 weeks, 50 subjects): 0 (0) number of subjects (%)
- Side effect: Polyuria (Renal Injury and urinary disorder) (40 mg, 6 weeks, 50 subjects): 0 (0) number of subjects (%)
- Side effect: Pruritus (Disturbance in Skin and Hypodermis) (40 mg, 6 weeks, 50 subjects): 0 (0) number of subjects (%)
- Side effect: Psychosis aggravated (Mental disturbance) (40 mg, 6 weeks, 50 subjects): 0 (0) number of subjects (%)
- Side effect: Restlessness (Mental disturbance) (40 mg, 6 weeks, 50 subjects): 1 (2) number of subjects (%)
- Side effect: Salivary hypersecretion (Gastroenteric disturbance) (40 mg, 6 weeks, 50 subjects): 0 (0) number of subjects (%)
- Side effect: Sinus tachycardia (Heart problems) (40 mg, 6 weeks, 50 subjects): 0 (0) number of subjects (%)
- Side effect: Sleepiness (Total disability and local condition) (40 mg, 6 weeks, 50 subjects): 1 (2) number of subjects (%)
- Side effect: Suppression (Nervous system disorder) (40 mg, 6 weeks, 50 subjects): 9 (18) number of subjects (%)
- Side effect: Tinea pedis (Infection and parasitosis) (40 mg, 6 weeks, 50 subjects): 0 (0) number of subjects (%)
- Side effect: Tongue disturbance (Gastroenteric disturbance) (40 mg, 6 weeks, 50 subjects): 1 (2) number of subjects (%)
- Side effect: Tremor (Nervous system disorder) (40 mg, 6 weeks, 50 subjects): 3 (6) number of subjects (%)
- Side effect: Trismus (Nervous system disorder) (40 mg, 6 weeks, 50 subjects): 0 (0) number of subjects (%)
- Side effect: Urinary tract infection (Infection and parasitosis) (40 mg, 6 weeks, 50 subjects): 1 (2) number of subjects (%)
- Side effect: Vomiting (Gastroenteric disturbance) (40 mg, 6 weeks, 50 subjects): 2 (4) number of subjects (%)
- Side effect: Weight loss (Laboratory assay) (40 mg, 6 weeks, 50 subjects): 1 (2) number of subjects (%)
- Akathisia (adverse event) (40 mg-treated group): 8%
- Exacerbation of schizophrenia (adverse event) (40 mg-treated group): 4%
- Ratio of the subjects showing suppression (40 mg-treated group): 18%
- Serious adverse events (40 mg-treated group): 3 cases
- Number of subjects showing adverse events (%) (120 mg orally once a day for 6 weeks, 49 subjects): 38 (78) number of subjects (%)
